Assay results as given in ChEMBL document CHEMBL5154879, “Induction of Genes Implicated in Stress Response and Autophagy by a Novel Quinolin-8-yl-nicotinamide QN523 in Pancreatic Cancer” (J Med Chem, 2022).

Test system: BXPC-3
Assay: Cytotoxicity against human BXPC-3 cells assessed as inhibition of cell growth incubated for 72 hrs by MTT assay
Type: functional, cell-based
Conditions: BXPC-3, 72 h

SMILES | IC50 [µM]
O=C(Nc1cccc2cccnc12)c1ccc(F)nc1 | > 10
Cc1cnc(C(=O)Nc2cc(OCCC3CCNCC3)cc3cccnc23)cn1 | 8.33
Cc1cnc(C(=O)Nc2cccc3ccc(C)nc23)cn1 | > 10
O=C(Nc1cccc2cccnc12)c1ncc2ccccc2n1 | > 10
CC(C)(C)OC(=O)NCCOc1cc(NC(=O)c2ncccn2)c2ncccc2c1 | > 10
Cc1cnc(C(=O)Nc2cc(F)cc3cccnc23)cn1 | > 10
Cc1ccc2cccc(NC(=O)c3ncccn3)c2n1 | > 10
O=C(Nc1cc(OCCN2CCOCC2)cc2cccnc12)c1cnccn1 | 5.17
O=C(Nc1cccc2cccnc12)c1ncccn1 | > 10
COc1cc(NC(=O)c2cnc(C)cn2)c2ncccc2c1 | 6.7
O=C(Nc1cc(Cl)cc2cccnc12)c1cnccn1 | > 10
Cc1cnc(C(=O)Nc2cc(OCCN3CCOCC3)cc3cccnc23)cn1 | 2

Test system: MIA PaCa-2
Assay: Cytotoxicity against human MIA PaCa-2 cells assessed as inhibition of cell growth incubated for 72 hrs by MTT assay
Type: functional, cell-based
Conditions: MIA PaCa-2, 72 h

SMILES | IC50 [µM]
O=C(Nc1cccc2cccnc12)c1ccc(F)nc1 | > 10
Cc1cnc(C(=O)Nc2cc(OCCC3CCNCC3)cc3cccnc23)cn1 | 6.17
Cc1cnc(C(=O)Nc2cccc3ccc(C)nc23)cn1 | > 10
O=C(Nc1cccc2cccnc12)c1ncc2ccccc2n1 | > 10
CC(C)(C)OC(=O)NCCOc1cc(NC(=O)c2ncccn2)c2ncccc2c1 | > 10
Cc1cnc(C(=O)Nc2cc(F)cc3cccnc23)cn1 | 0.31
Cc1ccc2cccc(NC(=O)c3ncccn3)c2n1 | > 10
O=C(Nc1cc(OCCN2CCOCC2)cc2cccnc12)c1cnccn1 | 1.7
O=C(Nc1cccc2cccnc12)c1ncccn1 | 0.33
COc1cc(NC(=O)c2cnc(C)cn2)c2ncccc2c1 | 0.27
O=C(Nc1cc(Cl)cc2cccnc12)c1cnccn1 | 2.83
Cc1cnc(C(=O)Nc2cc(OCCN3CCOCC3)cc3cccnc23)cn1 | 0.73

Test system: PANC-1
Assay: Cytotoxicity against human PANC-1 cells assessed as inhibition of cell growth incubated for 72 hrs by MTT assay
Type: functional, cell-based
Conditions: PANC-1, 72 h

SMILES | IC50 [µM]
O=C(Nc1cccc2cccnc12)c1ccc(F)nc1 | > 10
Cc1cnc(C(=O)Nc2cc(OCCC3CCNCC3)cc3cccnc23)cn1 | > 10
Cc1cnc(C(=O)Nc2cccc3ccc(C)nc23)cn1 | > 10
O=C(Nc1cccc2cccnc12)c1ncc2ccccc2n1 | > 10
CC(C)(C)OC(=O)NCCOc1cc(NC(=O)c2ncccn2)c2ncccc2c1 | > 10
Cc1cnc(C(=O)Nc2cc(F)cc3cccnc23)cn1 | 2.1
Cc1ccc2cccc(NC(=O)c3ncccn3)c2n1 | > 10
O=C(Nc1cc(OCCN2CCOCC2)cc2cccnc12)c1cnccn1 | 8.17
O=C(Nc1cccc2cccnc12)c1ncccn1 | > 10
COc1cc(NC(=O)c2cnc(C)cn2)c2ncccc2c1 | 0.8
O=C(Nc1cc(Cl)cc2cccnc12)c1cnccn1 | 2.7
Cc1cnc(C(=O)Nc2cc(OCCN3CCOCC3)cc3cccnc23)cn1 | 3.5
